This is an account of results in patent US20250205260A1, “ADJUNCTIVE TREATMENT OF MYCOBACTERIAL DISEASES” (UNIVERSITY OF SOUTHERN CALIFORNIA, priority 2022, published 2025).

One assay has as its system M. tuberculosis biofilm. The assay is described as follows: M. tuberculosis biofilm formation inhibition (crystal violet staining). It counts as cell-based, Mycobacterium tuberculosis. On the procedure:
FIG. 1A-D. Anti-M. tuberculosis biofilm activity of 6-treAz (6-azido-6-deoxy-D-trehalose). The effects of various concentrations of 6-treAz treatment on M. tuberculosis biofilms were monitored by crystal violet (CV) staining assay (A and B). […] The effect of 6-treAz on TreS mediated maltose production. Y-axis is the amount of maltose produced (D).
Planktonic growth and biofilm assays. Evaluation of planktonic growth and biofilm formation inhibition for M. smegmatis was carried out as previously reported for other trehalose analogues (Carbohydr. Res. 2017, 450, 60-66). Evaluation of planktonic growth and biofilm formation inhibition for M. tuberculosis was carried out as previously reported for 6-TreAz (Nat. Commun., 2019, 2928-2928).

Assay [1] deals with H37Rv lab strain (M. tuberculosis). The assay is classed as cell-based, Mycobacterium tuberculosis.
Assay [2] deals with M. smegmatis biofilm. The assay is described as follows: M. smegmatis biofilm formation inhibition. It counts as cell-based, Mycobacterium smegmatis.
Assay [3] relates to M. tuberculosis. To be noted: cited from earlier work.
Another assay has as its system M. smegmatis. To be noted: cited from earlier work.
The subject of a further assay is M. aurum. To be noted: cited from earlier work.
Assay [4] concerns M. tuberculosis. Briefly: M. tuberculosis planktonic growth inhibition. It counts as cell-based, Mycobacterium tuberculosis.
For assay [5], the target named is TreS (trehalose synthase) (Mycobacterium tuberculosis, UniProt P9WQ19). The assay is described as follows: In vitro TreS assay (maltose production, LC-MS). The assay is classed as biochemical, M. tuberculosis. To be noted: 100 μM compound, in vitro TreS enzyme reaction. On the procedure: In vitro TreS assay. TreS activity was measured using a 100 μL in vitro enzyme reaction containing 40 mM MOPS (pH 7.0), 10 mM trehalose, and 20 ng of purified TreS enzyme in the presence or absence of 6-treAz or validamycin A (a known TreS inhibitor). The reaction was initiated by adding TreS enzyme, incubated at 37° C., and then quenched by heating and adding acetonitrile containing 0.2% formic acid. After centrifugation, supernatants were used for LC-MS to quantify maltose product.

Assay [6] relates to M. tuberculosis trehalose catalytic shift (metabolome). The assay is described as follows: Metabolomics profiling / trehalose catalytic shift. As to conditions: M. tuberculosis biofilm, trehalose accumulation, depletion of maltose, glucose-P, sedoheptulose-P. The assay is classed as cell-based, Mycobacterium tuberculosis.
For assay [7], the system named is M. smegmatis biofilm. As to conditions: cited from earlier work.
The mark [8] stands for this setting: M. tuberculosis IC95 shift assay.

TreS (trehalose synthase), sequence (P9WQ19 whole entry, looked up): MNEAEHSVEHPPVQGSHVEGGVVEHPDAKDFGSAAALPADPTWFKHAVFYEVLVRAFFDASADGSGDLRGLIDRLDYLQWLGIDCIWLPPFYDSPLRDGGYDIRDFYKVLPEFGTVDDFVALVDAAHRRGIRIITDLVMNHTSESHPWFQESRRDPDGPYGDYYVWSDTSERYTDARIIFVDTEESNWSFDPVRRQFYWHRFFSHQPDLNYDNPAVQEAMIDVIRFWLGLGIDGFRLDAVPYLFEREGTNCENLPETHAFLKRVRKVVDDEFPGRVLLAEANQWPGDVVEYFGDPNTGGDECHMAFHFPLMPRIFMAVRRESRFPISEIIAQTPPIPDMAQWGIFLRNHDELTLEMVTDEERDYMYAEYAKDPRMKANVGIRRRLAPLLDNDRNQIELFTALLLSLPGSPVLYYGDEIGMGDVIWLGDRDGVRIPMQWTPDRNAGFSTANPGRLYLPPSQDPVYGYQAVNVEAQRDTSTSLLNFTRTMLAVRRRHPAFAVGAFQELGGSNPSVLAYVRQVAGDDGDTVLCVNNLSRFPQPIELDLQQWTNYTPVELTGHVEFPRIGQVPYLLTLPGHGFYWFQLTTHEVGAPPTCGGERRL

Turning to `N[C@H]1[C@@H](O[C@H]2O[C@H](CO)[C@@H](O)[C@H](O)[C@H]2O)O[C@H](CO)[C@@H](O)[C@@H]1O` [2-TreNH2, (2R,3R,4S,5S,6R)-2-(((2R,3R,4R,5S,6R)-3-amino-4,5-dihydroxy-6-(hydroxymethyl)tetrahydro-2H-pyran-2-yl)oxy)-6-(hydroxymethyl)tetrahydro-2H-pyran-3,4,5-triol], in the assay on M. tuberculosis biofilm, the “inhibition of M. tuberculosis biofilm formation” value is given as “inhibit”. Further, the “antimycobacterial synergy with TB antibiotics” value in [1] (H37Rv, INH, RIF or BDQ, […]) is on record as “antimicrobial synergy against H37Rv level similar to that of ΔtreS”. Moreover, in assay [1] (setting [8]), the “effect of co-treatment on IC95 values of isoniazid (INH) or rifampicin (RIF)” value was “significantly reduced” and the “reduction of IC95 value of bedaquiline (BDQ) by co-treatment” value is reported as “not”. Also, the “inhibition of M. smegmatis biofilm formation” value with M. smegmatis biofilm [2] was “inhibit”. In the assay with M. tuberculosis [3], the “inhibition of M. tuberculosis planktonic growth (previous research)” value is recorded as “exhibited inhibition”.

`[N-]=[N+]=NC[C@H]1O[C@H](O[C@H]2O[C@H](CO)[C@@H](O)[C@H](O)[C@H]2O)[C@H](O)[C@@H](O)[C@@H]1O` [6-TreAz, (2R,3S,4S,5R,6R)-2-(azidomethyl)-6-(((2R,3R,4S,5S,6R)-3,4,5-trihydroxy-6-(hydroxymethyl)tetrahydro-2H-pyran-2-yl)oxy)tetrahydro-2H-pyran-3,4,5-triol]: the “inhibition of M. smegmatis planktonic growth (previous research)” value in the assay with M. smegmatis was “inhibit growth”. Moreover, the “inhibition of M. tuberculosis biofilm formation” value in the assay with M. tuberculosis biofilm was “selective inhibitory activity”. Besides, the “concentration that significantly interfered with M. tuberculosis biofilm formation” value in the assay on M. tuberculosis biofilm (WT biofilm culture) is listed as “at least 100 M”. Besides, in the assay on M. aurum, the “inhibition of M. aurum growth (previous research)” value is “inhibit growth”. Besides, the “inhibition of M. tuberculosis planktonic growth” value with M. tuberculosis [4] was “no discernible effects”. Besides, the “TreS mediated maltose production” value in assay [5] is “abolished”. In addition, the “inhibition of the trehalose catalytic shift” value is “blocked” in assay [6] and “dose-dependent inhibition” in [6] (listed as 6-treAz). Further, the “inhibition of M. tuberculosis planktonic growth (previous research)” value in the assay with M. tuberculosis [3] is reported as “inhibit growth”. In addition, the “inhibition of M. smegmatis biofilm formation (previously known)” value in the assay with M. smegmatis biofilm [7] is given as “known to inhibit”.
